The values below are quoted from earlier work in EP0811056B1, “PEPTIDES FOR TISSUE AND CELL CULTURE MEDIA” (QUEST INTERNATIONAL B.V., priority 1995, dated 1996).

The conditions of the series: on a glutamine basis.

In the case of Glycyl-L-glutamine, the “amount of the dipeptide needed compared with free glutamine to obtain the same result” value is on record as “up to 6 times”.
